Assay results reported in the NIST ThermoML archive (doi:10.1016/j.fluid.2010.10.008).
Numbers after ± are expanded uncertainties.

Assay: activity coefficient (dimensionless); of the first substance listed, at infinite dilution; xn = mol fraction of the nth substance listed
Details: Liquid, Chromatography, x1 = 0

activity coefficient (318.15 K)	activity coefficient (323.15 K)	activity coefficient (333.15 K)	activity coefficient (343.15 K)	activity coefficient (353.15 K)	SMILES
5.58 ± 0.38	5.62 ± 0.38	5.69 ± 0.39	5.75 ± 0.39	5.8 ± 0.4	COCCOC [1,2-dimethoxyethane] + CCn1cc[n+](C)c1.CS(=O)(=O)[O-]
0.586 ± 0.042	0.632 ± 0.044	0.739 ± 0.049	0.843 ± 0.054	0.96 ± 0.06	FC(F)(F)C(Cl)Br (stereo not given) [1-bromo-1-chloro-2,2,2-trifluoroethane] + CCn1cc[n+](C)c1.CS(=O)(=O)[O-]
34.6 ± 2.4	33.8 ± 2.3	32.6 ± 2.2	31.8 ± 2.2	30.9 ± 2.1	COC(C)(C)C [2-methoxy-2-methylpropane] + CCn1cc[n+](C)c1.CS(=O)(=O)[O-]
0.862 ± 0.055	0.873 ± 0.056	0.887 ± 0.056	0.9 ± 0.057	0.912 ± 0.058	CC#N [acetonitrile] + CCn1cc[n+](C)c1.CS(=O)(=O)[O-]
4.51 ± 0.47	4.5 ± 0.47	4.48 ± 0.47	4.48 ± 0.47	4.46 ± 0.47	c1ccccc1 [benzene] + CCn1cc[n+](C)c1.CS(=O)(=O)[O-]
123 ± 13	115 ± 12	103 ± 11	93.2 ± 9.8	84.3 ± 8.9	C1CCCCC1 [cyclohexane] + CCn1cc[n+](C)c1.CS(=O)(=O)[O-]
0.7 ± 0.047	0.727 ± 0.048	0.78 ± 0.051	0.833 ± 0.054	0.887 ± 0.056	ClCCl [dichloromethane] + CCn1cc[n+](C)c1.CS(=O)(=O)[O-]
127 ± 26	122 ± 25	114 ± 23	107 ± 22	101 ± 20	CC(C)OC(C)C [diisopropyl ether] + CCn1cc[n+](C)c1.CS(=O)(=O)[O-]
3.18 ± 0.22	3.17 ± 0.22	3.16 ± 0.22	3.15 ± 0.21	3.14 ± 0.21	COC(=O)OC [dimethyl carbonate] + CCn1cc[n+](C)c1.CS(=O)(=O)[O-]
0.513 ± 0.038	0.509 ± 0.038	0.501 ± 0.038	0.496 ± 0.038	0.493 ± 0.038	CCO [ethanol] + CCn1cc[n+](C)c1.CS(=O)(=O)[O-]
7.32 ± 0.5	7.29 ± 0.5	7.22 ± 0.49	7.17 ± 0.49	7.12 ± 0.49	CCOC(C)=O [ethyl acetate] + CCn1cc[n+](C)c1.CS(=O)(=O)[O-]
19.1 ± 2	18.8 ± 2	18.3 ± 1.9	17.8 ± 1.9	17.3 ± 1.8	CCc1ccccc1 [ethylbenzene] + CCn1cc[n+](C)c1.CS(=O)(=O)[O-]
344 ± 36	326 ± 34	291 ± 31	262 ± 28	237 ± 25	CCC1CCCCC1 [ethylcyclohexane] + CCn1cc[n+](C)c1.CS(=O)(=O)[O-]
637 ± 130	596 ± 120	523 ± 110	471 ± 96	422 ± 86	CCCCCCC [heptane] + CCn1cc[n+](C)c1.CS(=O)(=O)[O-]
0.238 ± 0.029	0.239 ± 0.029	0.242 ± 0.03	0.244 ± 0.03	0.247 ± 0.03	CO [methanol] + CCn1cc[n+](C)c1.CS(=O)(=O)[O-]
3.59 ± 0.24	3.6 ± 0.25	3.61 ± 0.25	3.63 ± 0.25	3.66 ± 0.25	COC(C)=O [methyl ethanoate] + CCn1cc[n+](C)c1.CS(=O)(=O)[O-]
211 ± 22	198 ± 21	177 ± 19	160 ± 17	147 ± 16	CC1CCCCC1 [methylcyclohexane] + CCn1cc[n+](C)c1.CS(=O)(=O)[O-]
374 ± 26	356 ± 24	325 ± 22	300 ± 21	277 ± 19	C=CCCCCCC [oct-1-ene] + CCn1cc[n+](C)c1.CS(=O)(=O)[O-]
1020 ± 110	949 ± 100	839 ± 89	752 ± 79	676 ± 71	CCCCCCCC [octane] + CCn1cc[n+](C)c1.CS(=O)(=O)[O-]
0.801 ± 0.052	0.789 ± 0.051	0.771 ± 0.05	0.754 ± 0.05	0.742 ± 0.049	CCCO [propan-1-ol] + CCn1cc[n+](C)c1.CS(=O)(=O)[O-]
0.974 ± 0.061	0.958 ± 0.06	0.933 ± 0.059	0.913 ± 0.058	0.9 ± 0.057	CC(C)O [propan-2-ol] + CCn1cc[n+](C)c1.CS(=O)(=O)[O-]
5.37 ± 0.37	5.33 ± 0.36	5.24 ± 0.36	5.18 ± 0.35	5.1 ± 0.35	C1CCOC1 [tetrahydrofuran] + CCn1cc[n+](C)c1.CS(=O)(=O)[O-]
2.04 ± 0.14	2.06 ± 0.14	2.11 ± 0.14	2.16 ± 0.15	2.2 ± 0.15	c1ccsc1 [thiophene] + CCn1cc[n+](C)c1.CS(=O)(=O)[O-]
0.488 ± 0.037	0.515 ± 0.038	0.572 ± 0.041	0.633 ± 0.044	0.694 ± 0.047	ClC(Cl)Cl [trichloromethane] + CCn1cc[n+](C)c1.CS(=O)(=O)[O-]

SMILES	activity coefficient (318.15 K)	activity coefficient (323.15 K)	activity coefficient (333.15 K)	activity coefficient (343.15 K)	activity coefficient (353.15 K)
Cc1cccc(C)c1 [1,3-dimethylbenzene] + CCn1cc[n+](C)c1.CS(=O)(=O)[O-]	20.8 ± 2.2	20.5 ± 2.2	19.9 ± 2.1	19.3 ± 2	18.8 ± 2
CC(C)=O [acetone] + CCn1cc[n+](C)c1.CS(=O)(=O)[O-]	2.46 ± 0.17	2.47 ± 0.17	2.47 ± 0.17	2.48 ± 0.17	2.49 ± 0.17
CCC(C)=O [butanone] + CCn1cc[n+](C)c1.CS(=O)(=O)[O-]	4.48 ± 0.31	4.46 ± 0.3	4.48 ± 0.31	4.41 ± 0.3	4.38 ± 0.3
C[N+](=O)[O-] [nitromethane] + CCn1cc[n+](C)c1.CS(=O)(=O)[O-]	0.612 ± 0.043	0.621 ± 0.043	0.638 ± 0.044	0.653 ± 0.045	0.668 ± 0.045
ClC(Cl)(Cl)Cl [tetrachloromethane] + CCn1cc[n+](C)c1.CS(=O)(=O)[O-]	4.93 ± 0.34	5.08 ± 0.35	5.36 ± 0.37	5.62 ± 0.38	5.87 ± 0.4
Cc1ccccc1 [toluene] + CCn1cc[n+](C)c1.CS(=O)(=O)[O-]	9.41 ± 0.99	9.37 ± 0.99	9.23 ± 0.97	9.12 ± 0.96	9 ± 0.95
